Experimental findings from ChEMBL document CHEMBL1137463, “Discovery and structure-activity relationships of new steroidal compounds bearing a carboxy-terminal side chain as androgen receptor pure antagonists” (Bioorg Med Chem Lett, 2007) are described below.

By IC50 is commonly meant the concentration that inhibits the measured activity by half. Read a high IC50 as weaker potency. The term Inhibition denotes the relative decrease from the control value, in per cent. A low value points to a weak effect.

Assay [1] addresses T1, Androgen receptor (Homo sapiens) (UniProt P10275).
T1 sequence (whole entry): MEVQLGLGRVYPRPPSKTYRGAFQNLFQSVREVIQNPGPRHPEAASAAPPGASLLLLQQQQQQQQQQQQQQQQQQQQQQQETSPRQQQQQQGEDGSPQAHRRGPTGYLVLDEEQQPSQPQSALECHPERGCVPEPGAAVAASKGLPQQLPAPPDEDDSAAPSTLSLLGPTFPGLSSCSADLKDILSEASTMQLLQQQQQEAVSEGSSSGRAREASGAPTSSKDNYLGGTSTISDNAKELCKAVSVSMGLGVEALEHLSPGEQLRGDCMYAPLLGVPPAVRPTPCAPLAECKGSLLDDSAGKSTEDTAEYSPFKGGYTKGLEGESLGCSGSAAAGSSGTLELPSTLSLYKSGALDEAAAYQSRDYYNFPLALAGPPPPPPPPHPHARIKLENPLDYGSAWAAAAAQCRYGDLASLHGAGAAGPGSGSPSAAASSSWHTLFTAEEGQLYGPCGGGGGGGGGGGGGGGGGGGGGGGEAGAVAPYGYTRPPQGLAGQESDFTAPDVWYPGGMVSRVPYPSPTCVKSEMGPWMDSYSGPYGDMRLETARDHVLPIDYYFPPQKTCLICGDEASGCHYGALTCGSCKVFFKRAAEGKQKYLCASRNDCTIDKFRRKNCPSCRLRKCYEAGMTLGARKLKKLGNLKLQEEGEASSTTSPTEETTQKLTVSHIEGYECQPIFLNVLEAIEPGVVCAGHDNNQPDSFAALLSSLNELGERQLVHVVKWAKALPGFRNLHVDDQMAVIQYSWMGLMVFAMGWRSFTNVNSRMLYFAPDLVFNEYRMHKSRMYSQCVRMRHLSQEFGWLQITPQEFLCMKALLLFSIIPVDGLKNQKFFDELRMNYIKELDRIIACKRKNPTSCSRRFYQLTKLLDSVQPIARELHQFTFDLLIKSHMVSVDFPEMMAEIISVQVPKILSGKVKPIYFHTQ
The settings on record: HeLa.
Description: Agonist activity at human androgen receptor expressed in HeLa cells assessed as five times increase in transcriptional activity by reporter gene assay

Assay [2] concerns the target T2, Androgen receptor (Homo sapiens, UniProt P10275).
T2 sequence (P10275 whole entry): T1 sequence (whole entry)
Description: biochemical.
Description: Displacement of [3H]mibolerone from human androgen receptor expressed in CHOK1 cells

The target of assay [3] is T2, Androgen receptor.
Description: Antagonist activity at human androgen receptor expressed in HeLa cells assessed as inhibition of dihydrotestosterone induced transcriptional activity by reporter gene assay
In assay [4] the test system is Mus musculus. Nature of the assay: Inhibition of testosterone propionate-stimulated seminal vesicle weight gain in castrated mouse at 1 mg/body, sc. The assay is classed as functional.
Assay [5] has as its system Mus musculus. Nature of the assay: Inhibition of testosterone propionate-stimulated seminal vesicle weight gain in castrated mouse at 3 mg/body, sc. In kind it is functional.
Assay [6] relates to Mus musculus. Description: Inhibition of testosterone propionate-stimulated seminal vesicle weight gain in castrated mouse at 10 mg/body, sc. The assay is classed as functional.

Take `C[C@]12CCC(=O)C=C1C[C@@H](CCCCc1cccc(OCCCCC(=O)O)c1)[C@@H]1[C@@H]2CC[C@@]2(C)[C@H]1CC[C@]2(C)O`: in assay [1], the FI5 was greater than 10000 nM. Further, inhibition against Androgen receptor [2] was half-maximal at 350 nM (IC50).

As to `C[C@]12CCC(=O)C[C@@H]1C[C@@H](CCCCCCCCCC(=O)O)[C@@H]1[C@@H]2CC[C@]2(C)[C@@H](O)CC[C@@H]12`, the half-maximal inhibitory concentration (IC50) against Androgen receptor [3] amounted to 920 nM; at Androgen receptor [2], 350 nM. This compound also came in with an FI5 in assay [1] of 120 nM.

Consider `C[C@]12CCC(=O)C=C1C[C@@H](CCCCc1ccc(OCCCCC(=O)O)cc1)[C@@H]1[C@@H]2CC[C@@]2(C)[C@H]1CC[C@]2(C)O`, for which the IC50 turned out to be 250 nM against Androgen receptor [3] and 96 nM on Androgen receptor [2]. This compound showed an FI5 in assay [1] of 2000 nM.

Compound `C[C@]12CCC(=O)C=C1C[C@@H](CCCCc1ccc(OCCCC(=O)O)cc1)[C@@H]1[C@@H]2CC[C@@]2(C)[C@H]1CC[C@]2(C)O` gave an IC50 against Androgen receptor [3] of 850 nM. In assay [1], this compound had an FI5 of 170 nM.

Take `CC(C)(O)C(=O)Nc1ccc([N+](=O)[O-])c(C(F)(F)F)c1` [HYDROXYFLUTAMIDE]: the figures for the Inhibition in the assay with Mus musculus [4], with Mus musculus [5] and with Mus musculus [6] were 6.7%, 0.8% and 6.4%, respectively. This compound also returned an FI5 in assay [1] of 1000 nM.

In the case of `C[C@]12CCC(=O)C=C1C[C@@H](CCCc1ccc(OCCC(=O)O)cc1)[C@@H]1[C@@H]2CC[C@@]2(C)[C@H]1CC[C@]2(C)O`, the IC50 against Androgen receptor [3] amounted to 170 nM; at Androgen receptor [2], 300 nM. In assay [1], the FI5 was found to be 2500 nM.

The compound `C[C@]12CCC(=O)C=C1C[C@@H](CCCCc1ccc(OCCCCCC(=O)O)cc1)[C@@H]1[C@@H]2CC[C@@]2(C)[C@H]1CC[C@]2(C)O` registered an IC50 against Androgen receptor [3] of 420 nM. Besides, the FI5 in assay [1] was 100 nM.

For the compound `CN(C)C(=O)CCCCCCC[C@@H]1C[C@H]2CC(=O)CC[C@]2(C)[C@H]2CC[C@]3(C)[C@@H](O)CC[C@H]3[C@H]12`, the IC50 at Androgen receptor [3] came out at 190 nM; against Androgen receptor [2], 260 nM. This compound also yielded an FI5 in assay [1] greater than 10000 nM.

With `C[C@]12CCC(=O)C=C1C[C@@H](CCCCc1cccc(OCCCC(=O)O)c1)[C@@H]1[C@@H]2CC[C@@]2(C)[C@H]1CC[C@]2(C)O`, the IC50 was 920 nM on Androgen receptor [3] and 670 nM on Androgen receptor [2]. The FI5 in assay [1] was greater than 10000 nM.

Consider `C[C@]12CCC(=O)C[C@@H]1C[C@@H](CCCCCCCCC(CCCC(F)(F)C(F)(F)F)C(=O)O)[C@@H]1[C@@H]2CC[C@]2(C)[C@@H](O)CC[C@@H]12` (stereo not given in full), for which the half-maximal inhibitory concentration (IC50) on Androgen receptor [3] is greater than 10000 nM; against Androgen receptor [2], 410 nM. In assay [1], this compound yielded an FI5 of 13 nM.

For `C[C@]12CCC(=O)C=C1C[C@@H](CCCCc1cccc(OCCCCCC(=O)O)c1)[C@@H]1[C@@H]2CC[C@@]2(C)[C@H]1CC[C@]2(C)O`, the IC50 was found to be 530 nM on Androgen receptor [3] and 120 nM against Androgen receptor [2]. This compound also displayed an FI5 in assay [1] greater than 10000 nM.

Consider `C[C@]12CCC(=O)C=C1C[C@@H](CCCCCCCCCC(=O)O)[C@@H]1[C@@H]2CC[C@@]2(C)[C@H]1CC[C@]2(C)O`, for which the IC50 against Androgen receptor [3] came to 2000 nM; against Androgen receptor [2] it was 600 nM. Also, the FI5 in assay [1] was greater than 10000 nM.

In turn, `C[C@]12CCC(=O)C=C1C[C@@H](CCCc1cccc(OCCCC(=O)O)c1)[C@@H]1[C@@H]2CC[C@@]2(C)[C@H]1CC[C@]2(C)O` returned an IC50 at Androgen receptor [3] of 5800 nM. This compound also registered an FI5 in assay [1] of 1500 nM.

Regarding `C[C@]12CCC(=O)C=C1C[C@@H](CCCc1ccc(OCCCCC(=O)O)cc1)[C@@H]1[C@@H]2CC[C@@]2(C)[C@H]1CC[C@]2(C)O`, the figures for the IC50 at Androgen receptor [3] and against Androgen receptor [2] were 300 nM and 660 nM, respectively. This compound came in with an FI5 in assay [1] of 3200 nM.

As to `C[C@]12CCC(=O)C=C1C[C@@H](CCCc1ccc(OCCCC(=O)O)cc1)[C@@H]1[C@@H]2CC[C@@]2(C)[C@H]1CC[C@]2(C)O`, the half-inhibitory concentration (IC50) was determined as 660 nM on Androgen receptor [3] and 430 nM against Androgen receptor [2]. This compound registered an FI5 in assay [1] greater than 10000 nM.

On to `C[C@]12CCC(=O)C[C@@H]1C[C@@H](CCCCCCCC(=O)O)[C@@H]1[C@@H]2CC[C@]2(C)[C@@H](O)CC[C@@H]12`, for which the IC50 is 730 nM on Androgen receptor [3] and 660 nM at Androgen receptor [2]. Moreover, in assay [1], the FI5 turned out to be 110 nM.
